# Measured values published in EP1145714A1, “DRUGS” (Takeda Chemical Industries, Ltd., priority 1998, dated 2000).
# Tests used:
# [1] = system: acute vomiting induced by cisplatin in ferrets; experiment: Acute vomiting induced by cisplatin in ferrets, compound intraperitoneally given; format: in vivo; settings: 1 mg/kg i.p., cisplatin 10 mg/kg i.p.
# Experimental: 6 to 9 male ferrets (1.2 to 1.7 kg) per one group were used. Cisplatin was intraperitoneally given at 10 mg/kg. 30 minutes prior to cisplatin administration, predetermined doses of the compound No. 3 were intraperitoneally given to the animals under fasting. Similarly, PEG 400 was intraperitoneally given to a control animal group under fasting. The frequency of vomiting was counted in number, up to 5 hours after cisplatin administration.
# The compound No. 3 was dissolved in PEG 400, for intraperitoneal dosing at a ratio of 1 ml per 1 kg body weight. Additionally, PEG 400 was intraperitoneally given at a ratio of 1 ml per 1 kg body weight. The data relating to the frequency of vomiting, the latency and the time period from the occurrence of vomiting to the termination thereof were statistically analyzed by the t test, with reference to the difference from the control group.
# The acute retching suppression ratio and acute vomiting suppression ratio were determined in the same manner as in Example 1,3.
# [2] = system: methotrexate-induced delayed vomiting in dogs; experiment: Methotrexate-induced delayed vomiting in dogs, oral dosing; format: in vivo, beagle dogs; settings: methotrexate 2.5 mg/kg i.v.; for Frequency of vomiting (mean ± SD), Total frequency / Number of dogs with vomiting/number of tested dogs: 72 hours
# Experimental: 3 or 4 beagle dogs (8.3 to 12.6 kg), male or female per one group were used. Methotrexate was intravenously administered at 2.5 mg/ml/kg. 8, 24 and 48 hours after methotrexate dosing, predetermined doses of the compound No. 3, ondansetron and 0.5% methyl cellulose solution were orally given. The compound No. 3 and 0.5 % methyl cellulose solution were dosed 30 minutes after a small amount of a feed was given to the animals, while ondansetron was dosed to the animals under fasting. The frequency of vomiting was counted in number, up to 72 hours after methotrexate dosing. The compound No. 3 was suspended in 0.5 % methyl cellulose solution and was then orally dosed at a ratio of 0.25 to 1 ml per 1 kg body weight. A predetermined volume of an ondansetron injection at a concentration of 0.2 w/v % was orally dosed. Additionally, 0.5 % methyl cellulose solution was orally given at a ratio of 1 ml per 1 kg body weight. The data relating to the frequency of vomiting, the latency and the time period from the occurrence of vomiting to the termination thereof were statistically analyzed by the Dunnett test, with reference to the difference from the control group.
# The delayed vomiting suppression ratio and the suppression ratio of the total frequency of vomiting were calculated by the following formula.
# [3] = system: acute vomiting induced by cisplatin in ferrets; experiment: Acute vomiting induced by cisplatin in ferrets, compound orally given; format: in vivo; settings: cisplatin 10 mg/kg i.p.; for Duration of retching (in hour; mean ± SD) / Duration of vomiting (in hour;, mean ± SD) / Frequency of retching (mean ± SD) / Frequency of vomiting (mean ± SD) / Number of ferrets with retching /number of tested ferrets / Number of ferrets with vomiting /number of tested ferrets / Time period until first retching (in hour; ± mean SD) / Time period until first vomiting (in hour;, mean ± SD): 5 hours
# Experimental: 5 to 6 male ferrets (1.2 to 2.3 kg) per one group were used. Cisplatin was intraperitoneally given at 10 mg/10 ml/kg. One hour prior to cisplatin administration, a small volume of a feed was given to the animals. 30 minutes prior to cisplatin administration, predetermined doses of the compound No. 3 were orally given. Similarly, 0.5 % methyl cellulose (MC) solution was orally given to a control animal group under no fasting. The frequency of vomiting was counted in number, up to 5 hours after cisplatin administration.
# The compound No. 3 was suspended in 0.5 % methyl cellulose solution to predetermined concentrations, for oral dosing at a ratio of 1 ml per 1 kg body weight. Additionally, 0.5% methyl cellulose solution was orally given at a ratio of 1 ml per 1 kg body weight. The data relating to the frequency of vomiting, the time period (latency) until first vomiting and the time period from the occurrence of vomiting to the termination thereof were statistically analyzed by the Dunnett test, with reference to the difference from the control group.
# The acute retching suppression ratio and acute vomiting suppression ratio were calculated by the following formula. [Frequency of retching or vomiting in control] - [Frequency of retching or vomiting in animals dosed with the compound No. 3] / [Frequency of retching or vomiting in control] x 100 (%) [formula]
smiles,measurement,setting,value
"Cc1ccc(-c2c3n(c(=O)c4ncccc24)CC[C@@H](C)CN(Cc2cc(C(F)(F)F)cc(C(F)(F)F)c2)C3=O)cc1 [Cpd. No.3, (9R)-7-[3,5-bis(trifluoromethyl)benzyl]-6,7,8,9,10,11-hexahydro-9-methyl-5-(4-methylphenyl)-6,13-dioxo-13H-[1,4]diazocino[2,1-g][1,7]naphthylidine]",Effect on cisplatin-induced retching and actual vomiting (in words),[1],significantly suppressed
same,Suppression ratio of acute retching,[1],53 % b
same,Suppression ratio of acute vomiting,[1],49 % a
same,"Duration of retching (in minute, mean ± SD)",[1]; 5 hours,2.6 ± 0.3 min
same,"Duration of vomiting (in minute, mean ± SD)",[1]; 5 hours,1.7 ± 0.3 b minute
same,Frequency of retching (mean ± SD),[1]; 5 hours,57.5 ± 6.2 b
same,Frequency of vomiting (mean ± SD),[1]; 5 hours,5.7 ± 1.0 a
same,Number of ferrets with retching /number of tested ferrets,[1]; 5 hours,6/6
same,Number of ferrets with vomiting /number of tested ferrets,[1]; 5 hours,6/6
same,"Time period until first retching (in minute, mean ± SD)",[1]; 5 hours,1.5 ± 0.1 min
same,"Time period until first vomiting (in minute, mean ± SD)",[1]; 5 hours,1.8 ± 0.1 min
same,Effect on methotrexate-induced vomiting (in words),[2]; 0.01 mg/kg or higher p.o.,significantly suppressed
same,Effect on the time period from the occurrence of vomiting to the termination thereof (in words),[2]; 0.01 mg/kg or higher p.o.,significantly shortened
same,Delayed vomiting suppression ratio (24 to 72 hours after MIX dosing),[2]; 0.01 mg/kg p.o. once daily,60 % b
same,Suppression ratio of total frequency of vomiting (0 to 72 hours after MTX dosing),[2]; 0.01 mg/kg p.o. once daily,62 % b
same,Duration (in hour; mean ± SD),[2]; 0.01 mg/kg p.o.,21.8 ± 5.8 a hour
same,"Frequency of vomiting (mean ± SD), Day 0 (0-24 hours)",[2]; 0.01 mg/kg p.o.,0 b
same,"Frequency of vomiting (mean ± SD), Days 1 + 2 (24 - 72 hours)",[2]; 0.01 mg/kg p.o.,4.7 ± 0.7 b
same,Latency (in hour; mean ± SD),[2]; 0.01 mg/kg p.o.,33.8 ± 4.8 h
same,"Frequency of vomiting (mean ± SD), Total frequency",[2]; 0.01 mg/kg p.o.,4.7 ± 0.7 b
same,Number of dogs with vomiting/number of tested dogs,[2]; 0.01 mg/kg p.o.,3/3
same,Delayed vomiting suppression ratio (24 to 72 hours after MIX dosing),[2]; 0.1 mg/kg p.o. once daily,74 % b
same,Suppression ratio of total frequency of vomiting (0 to 72 hours after MTX dosing),[2]; 0.1 mg/kg p.o. once daily,76 % b
same,Duration (in hour; mean ± SD),[2]; 0.1 mg/kg p.o.,15.0 ± 8.0 b hour
same,"Frequency of vomiting (mean ± SD), Day 0 (0-24 hours)",[2]; 0.1 mg/kg p.o.,0 b
same,"Frequency of vomiting (mean ± SD), Days 1 + 2 (24 - 72 hours)",[2]; 0.1 mg/kg p.o.,3.0 ± 1.0 b
same,Latency (in hour; mean ± SD),[2]; 0.1 mg/kg p.o.,35.7 ± 7.1 h
same,"Frequency of vomiting (mean ± SD), Total frequency",[2]; 0.1 mg/kg p.o.,3.0 ± 1.0 b
same,Number of dogs with vomiting/number of tested dogs,[2]; 0.1 mg/kg p.o.,3/3
same,Delayed vomiting suppression ratio (24 to 72 hours after MIX dosing),[2]; 1 mg/kg p.o. once daily,68 % b
same,Suppression ratio of total frequency of vomiting (0 to 72 hours after MTX dosing),[2]; 1 mg/kg p.o. once daily,70 % b
same,Duration (in hour; mean ± SD),[2]; 1 mg/kg p.o.,14.4 ± 6.1 b hour
same,"Frequency of vomiting (mean ± SD), Day 0 (0-24 hours)",[2]; 1 mg/kg p.o.,0 b
same,"Frequency of vomiting (mean ± SD), Days 1 + 2 (24 - 72 hours)",[2]; 1 mg/kg p.o.,3.7 ± 0.7 b
same,Latency (in hour; mean ± SD),[2]; 1 mg/kg p.o.,46.7 ± 8.7 h
same,"Frequency of vomiting (mean ± SD), Total frequency",[2]; 1 mg/kg p.o.,3.7 ± 0.7 b
same,Number of dogs with vomiting/number of tested dogs,[2]; 1 mg/kg p.o.,3/3
same,Delayed vomiting suppression ratio (24 to 72 hours after MIX dosing),[2]; 3 mg/kg p.o. once daily,85 % b
same,Suppression ratio of total frequency of vomiting (0 to 72 hours after MTX dosing),[2]; 3 mg/kg p.o. once daily,86 % b
same,Duration (in hour; mean ± SD),[2]; 3 mg/kg p.o.,6.4 ± 5.9 b hour
same,"Frequency of vomiting (mean ± SD), Day 0 (0-24 hours)",[2]; 3 mg/kg p.o.,0 b
same,"Frequency of vomiting (mean ± SD), Days 1 + 2 (24 - 72 hours)",[2]; 3 mg/kg p.o.,1.7 ± 0.3 b
same,Latency (in hour; mean ± SD),[2]; 3 mg/kg p.o.,45.5 ± 3.3 h
same,"Frequency of vomiting (mean ± SD), Total frequency",[2]; 3 mg/kg p.o.,1.7 ± 0.3 b
same,Number of dogs with vomiting/number of tested dogs,[2]; 3 mg/kg p.o.,3/3
same,Delayed vomiting suppression ratio (24 to 72 hours after MIX dosing),[2]; 10 mg/kg p.o. once daily,97 % b
same,Suppression ratio of total frequency of vomiting (0 to 72 hours after MTX dosing),[2]; 10 mg/kg p.o. once daily,98 % b
same,Duration (in hour; mean ± SD),[2]; 10 mg/kg p.o.,0 b hour
same,Effect on methotrexate-induced vomiting (in words),[2]; 10 mg/kg p.o.,almost completely suppressed
same,"Frequency of vomiting (mean ± SD), Day 0 (0-24 hours)",[2]; 10 mg/kg p.o.,0 b
same,"Frequency of vomiting (mean ± SD), Days 1 + 2 (24 - 72 hours)",[2]; 10 mg/kg p.o.,0.3 ± 0.3 b
same,Latency (in hour; mean ± SD),[2]; 10 mg/kg p.o.,66.2 ± 5.8 b hour
same,"Frequency of vomiting (mean ± SD), Total frequency",[2]; 10 mg/kg p.o.,0.3 ± 0.3 b
same,Number of dogs with vomiting/number of tested dogs,[2]; 10 mg/kg p.o.,1/4
same,Suppression ratio of acute retching,[3]; 1 mg/kg p.o.,38 % NS
same,Suppression ratio of acute vomiting,[3]; 1 mg/kg p.o.,22 % NS
same,Duration of retching (in hour; mean ± SD),[3]; 1 mg/kg p.o.,1.7 ± 0.4 h
same,"Duration of vomiting (in hour;, mean ± SD)",[3]; 1 mg/kg p.o.,1.4 ± 0.4 h
same,Frequency of retching (mean ± SD),[3]; 1 mg/kg p.o.,79.0 ± 15.1
same,Frequency of vomiting (mean ± SD),[3]; 1 mg/kg p.o.,8.3 ± 2.2
same,Number of ferrets with retching /number of tested ferrets,[3]; 1 mg/kg p.o.,6/6
same,Number of ferrets with vomiting /number of tested ferrets,[3]; 1 mg/kg p.o.,6/6
same,Time period until first retching (in hour; ± mean SD),[3]; 1 mg/kg p.o.,1.5 ± 0.1 h
same,"Time period until first vomiting (in hour;, mean ± SD)",[3]; 1 mg/kg p.o.,1.6 ± 0.1 h
same,Effect on vomiting (in words),[3]; 3 mg/kg p.o.,significantly suppressed
same,Suppression ratio of acute retching,[3]; 3 mg/kg p.o.,53 % b
same,Suppression ratio of acute vomiting,[3]; 3 mg/kg p.o.,27 % NS
same,Duration of retching (in hour; mean ± SD),[3]; 3 mg/kg p.o.,1.7 ± 0.3 h
same,"Duration of vomiting (in hour;, mean ± SD)",[3]; 3 mg/kg p.o.,1.6 ± 0.4 h
same,Frequency of retching (mean ± SD),[3]; 3 mg/kg p.o.,59.3 ± 12.0 b
same,Frequency of vomiting (mean ± SD),[3]; 3 mg/kg p.o.,7.8 ± 1.3
same,Number of ferrets with retching /number of tested ferrets,[3]; 3 mg/kg p.o.,6/6
same,Number of ferrets with vomiting /number of tested ferrets,[3]; 3 mg/kg p.o.,6/6
same,Time period until first retching (in hour; ± mean SD),[3]; 3 mg/kg p.o.,1.6 ± 0.1 h
same,"Time period until first vomiting (in hour;, mean ± SD)",[3]; 3 mg/kg p.o.,1.6 ± 0.1 h
same,Effect on vomiting (in words),[3]; 10 mg/kg p.o.,prominently suppressed
same,Suppression ratio of acute retching,[3]; 10 mg/kg p.o.,88 % b
same,Suppression ratio of acute vomiting,[3]; 10 mg/kg p.o.,70 % b
same,Duration of retching (in hour; mean ± SD),[3]; 10 mg/kg p.o.,2.4 ± 0.5 h
same,"Duration of vomiting (in hour;, mean ± SD)",[3]; 10 mg/kg p.o.,1.0 ± 0.4 h
same,Frequency of retching (mean ± SD),[3]; 10 mg/kg p.o.,14.8 ± 3.7 b
same,Frequency of vomiting (mean ± SD),[3]; 10 mg/kg p.o.,3.2 ± 1.0 b
same,Number of ferrets with retching /number of tested ferrets,[3]; 10 mg/kg p.o.,5/6
same,Number of ferrets with vomiting /number of tested ferrets,[3]; 10 mg/kg p.o.,5/6
same,Time period until first retching (in hour; ± mean SD),[3]; 10 mg/kg p.o.,2.1 ± 0.6 h
same,"Time period until first vomiting (in hour;, mean ± SD)",[3]; 10 mg/kg p.o.,2.2 ± 0.6 h
"Cc1nccn1CC1CCc2c(c3ccccc3n2C)C1=O (stereo not shown) [Ondansetron, ondansetron, reference compound]",Delayed vomiting suppression ratio (24 to 72 hours after MIX dosing),[2]; 10 mg/kg p.o. once daily,21 % NS
same,Suppression ratio of total frequency of vomiting (0 to 72 hours after MTX dosing),[2]; 10 mg/kg p.o. once daily,24 % NS
same,Duration (in hour; mean ± SD),[2]; 10 mg/kg p.o.,27.8 ± 2.7 h
same,"Frequency of vomiting (mean ± SD), Day 0 (0-24 hours)",[2]; 10 mg/kg p.o.,0 b
same,"Frequency of vomiting (mean ± SD), Days 1 + 2 (24 - 72 hours)",[2]; 10 mg/kg p.o.,9.3 ± 2.3
same,Latency (in hour; mean ± SD),[2]; 10 mg/kg p.o.,28.6 ± 3.9 h
same,"Frequency of vomiting (mean ± SD), Total frequency",[2]; 10 mg/kg p.o.,9.3 ± 2.3
same,Number of dogs with vomiting/number of tested dogs,[2]; 10 mg/kg p.o.,3/3
